{
  "source": "patent US20190343908A1",
  "about": "“Therapeutic Combination for the Treatment of Cancer” (Nerium Biotechnology Inc., priority 2011, published 2019)",
  "key": {"[1]": {"test_system": "HCT-15 (colorectal cancer)", "test": "Crystal Violet viability assay, HCT-15", "format": "cell-based, human", "design": "key to CVE Average: absorbance at 570 nm (second wavelength subtracted)", "settings": "for CVE Average 24 h / CVE Average 48 h / CVE Average 72 h: HCT-15, Run 1", "from_the_text": "The Sulforhodamine B and Crystal Violet assays provide information about protein and were used to complement the Methyl-Tetrazolium dye assay. […] It is used for the quantification of cellular proteins of cultured cells. The assay using Crystal Violet, a dye that binds electrostatically to proteins and stains DNA, provides a reliable, simple assay for measuring viability of cells.\n(§1) The Methyl Tetrazolium, Sulforhodamine B, and Crystal Violet assays were used to assess cell viabilities. The incubation times were 24 hours, 48 hours, and 72 hours. The Nerium oleander extract Anvirzel™ (a hot water extract of oleander obtained from Salud Integral, Honduras) was tested in concentrations ranging from 0.01 ng/mL to 10 ng/mL.\n(§2) Cells were detached by trypsinization (Trypsin-0.25% EDTA, Invitrogen, 25200-072) during the logarithmic phase of culture growth and plated in 96-well plates (18.000 cells/well) (Corning, Costar 359) in a final volume of 200 μl of medium per well. […] The absorbance was measured after 24 hours, 48 hours, and 72 hours of incubation.\nFor the Crystal Violet assay, the medium was removed from the 96-well plates, the plates rinsed with PBS (Sigma, P3813) and then the cells were […] by the addition of 10% formalin (MERCK, 1.04003.2500) for 20 minutes at RT. Formalin was removed and 0.25% aqueous crystal violet (Sigma, HT901), dissolved in water, was added for 10 minutes at RT. Unbound Crystal Violet was rinsed by washing with water and finally 33% acetic acid was added to dissolve the dye.\n(§3) The optical density of each plate was measured on a μQuant spectrophotometer and the data were analyzed with Gen5 software (μQuant Biomolecular Spectrophotometer MQX200 and Gen5™ Microplate Data Collection & Analysis software, BioTek® Instruments. Inc, April 2008). Absorbance was measured at 570 nm for all assays and a second wavelength was measured in order to subtract noise. For the Methyl-Tetrazolium assay this second wavelength was 630 nm and for the Sulforhodamine B and Crystal Violet assays it was 690 nm."}, "[2]": {"test_system": "T47D (human breast cancer)", "test": "Methyl-Tetrazolium viability assay, T47D", "format": "cell-based", "design": "key: absorbance (optical density) at 570 nm, second wavelength subtracted", "from_the_text": "Three different viability assays were chosen to complement each other and yielded results dependent on concentration and cell line: the Methyl Tetrazolium dye assay, the Sulforhodamine B fluorescent dye assay, and the Crystal Violet dye assay.\nThe Methyl-Tetrazolium dye assay measures the activity of enzymes in mitochondria. The dye precursor is taken up by cells, where it undergoes reduction to the purple formazan. It measures only the mitochondrial activity and, thus, it is not always a reliable indication of whether the cells themselves are alive or dead, since even a recently dead cell has […] enzyme activity in mitochondria. Intracellular glucose concentration, pH, and time before assay all affect the measurements.\nas §1, §2\nFor the Methyl-Tetrazolium assay, the dye (Sigma, M2128; 5 mg/mL, diluted in phosphate-buffered saline) was added to each well and plates were incubated for 3 hours at 37° C. After the end of the incubation period, the medium was discarded and the cells were rinsed with phosphate-buffered saline. Finally, the formazan crystals were dissolved in dimethylsulphoxide (Sigma, D4540).\nas §3"}},
  "data": [
    {"compound": "N.N.[Cl][Pt][Cl]", "note": "[cisplatin]", "values": [
      {"measurement": "CVE Average 24 h", "setting": "[1]; 0.1 μg/ml CDDP", "result": 0.787},
      {"measurement": "CVE Average 48 h", "setting": "[1]; 0.1 μg/ml CDDP", "result": 0.99},
      {"measurement": "CVE Average 72 h", "setting": "[1]; 0.1 μg/ml CDDP", "result": 2.312},
      {"measurement": "CVE Average 24 h", "setting": "[1]; 1 μg/ml CDDP", "result": 0.451},
      {"measurement": "CVE Average 48 h", "setting": "[1]; 1 μg/ml CDDP", "result": 0.187},
      {"measurement": "CVE Average 72 h", "setting": "[1]; 1 μg/ml CDDP", "result": 0.425},
      {"measurement": "CVE Average 24 h", "setting": "[1]; 10 μg/ml CDDP", "result": 0.59},
      {"measurement": "CVE Average 48 h", "setting": "[1]; 10 μg/ml CDDP", "result": 0.277},
      {"measurement": "CVE Average 72 h", "setting": "[1]; 10 μg/ml CDDP", "result": 0.282},
      {"measurement": "CVE Average 24 h", "setting": "[1]; 100 μg/ml CDDP", "result": 0.456},
      {"measurement": "CVE Average 48 h", "setting": "[1]; 100 μg/ml CDDP", "result": 0.214},
      {"measurement": "CVE Average 72 h", "setting": "[1]; 100 μg/ml CDDP", "result": 0.231},
      {"measurement": "CVE Average", "setting": "[1]; Run 2, 24 h, 0.1 μg/ml CDDP", "result": 0.766},
      {"measurement": "CVE Average", "setting": "[1]; Run 2, 24 h, 1 μg/ml CDDP", "result": 0.387},
      {"measurement": "CVE Average", "setting": "[1]; Run 2, 24 h, 10 μg/ml CDDP", "result": 0.824},
      {"measurement": "CVE Average", "setting": "[1]; Run 2, 24 h, 100 μg/ml CDDP", "result": 0.41},
      {"measurement": "CVE Average", "setting": "[1]; Run 2, 48 h, 0.1 μg/ml CDDP", "result": 1.542},
      {"measurement": "CVE Average", "setting": "[1]; Run 2, 48 h, 1 μg/ml CDDP", "result": 0.533},
      {"measurement": "CVE Average", "setting": "[1]; Run 2, 48 h, 10 μg/ml CDDP", "result": 0.742},
      {"measurement": "CVE Average", "setting": "[1]; Run 2, 48 h, 100 μg/ml CDDP", "result": 0.378},
      {"measurement": "CVE Average", "setting": "[1]; Run 2, 72 h, 0.1 μg/ml CDDP", "result": 2.449},
      {"measurement": "CVE Average", "setting": "[1]; Run 2, 72 h, 1 μg/ml CDDP", "result": 0.533},
      {"measurement": "CVE Average", "setting": "[1]; Run 2, 72 h, 10 μg/ml CDDP", "result": 0.46},
      {"measurement": "CVE Average", "setting": "[1]; Run 2, 72 h, 100 μg/ml CDDP", "result": 0.327},
      {"measurement": "CVE Average", "setting": "[1]; Run 3, 24 h, 0.1 μg/ml CDDP", "result": 2.043},
      {"measurement": "CVE Average", "setting": "[1]; Run 3, 24 h, 1 μg/ml CDDP", "result": 0.459},
      {"measurement": "CVE Average", "setting": "[1]; Run 3, 24 h, 10 μg/ml CDDP", "result": 1.477},
      {"measurement": "CVE Average", "setting": "[1]; Run 3, 24 h, 100 μg/ml CDDP", "result": 0.473},
      {"measurement": "CVE Average", "setting": "[1]; Run 3, 48 h, 0.1 μg/ml CDDP", "result": 1.335},
      {"measurement": "CVE Average", "setting": "[1]; Run 3, 48 h, 10 μg/ml CDDP", "result": 0.363},
      {"measurement": "CVE Average", "setting": "[1]; Run 3, 48 h, 100 μg/ml CDDP", "result": 0.114},
      {"measurement": "CVE Average", "setting": "[1]; Run 3, 72 h, 0.1 μg/ml CDDP", "result": 2.814},
      {"measurement": "CVE Average", "setting": "[1]; Run 3, 72 h, 1 μg/ml CDDP", "result": 0.623},
      {"measurement": "CVE Average", "setting": "[1]; Run 3, 72 h, 10 μg/ml CDDP", "result": 0.669},
      {"measurement": "CVE Average", "setting": "[1]; Run 3, 72 h, 100 μg/ml CDDP", "result": 0.499},
      {"measurement": "MTT Average", "setting": "[2]; T47D Run 1, 24 h, 0.1 μg/ml CDDP", "result": 0.166},
      {"measurement": "MTT Average", "setting": "[2]; T47D Run 1, 24 h, 1 μg/ml CDDP", "result": 0.033},
      {"measurement": "MTT Average", "setting": "[2]; T47D Run 1, 24 h, 10 μg/ml CDDP", "result": 0.046},
      {"measurement": "MTT Average", "setting": "[2]; T47D Run 1, 24 h, 100 μg/ml CDDP", "result": 0.045},
      {"measurement": "MTT Average", "setting": "[2]; T47D Run 1, 48 h, 1 μg/ml CDDP", "result": 0.039},
      {"measurement": "MTT Average", "setting": "[2]; T47D Run 1, 48 h, 10 μg/ml CDDP", "result": 0.044},
      {"measurement": "MTT Average", "setting": "[2]; T47D Run 1, 48 h, 100 μg/ml CDDP", "result": 0.038},
      {"measurement": "MTT Average", "setting": "[2]; T47D Run 1, 72 h, 0.1 μg/ml CDDP", "result": 0.336},
      {"measurement": "MTT Average", "setting": "[2]; T47D Run 1, 72 h, 1 μg/ml CDDP", "result": 0.04},
      {"measurement": "MTT Average", "setting": "[2]; T47D Run 1, 72 h, 10 μg/ml CDDP", "result": 0.05},
      {"measurement": "MTT Average", "setting": "[2]; T47D Run 1, 72 h, 100 μg/ml CDDP", "result": 0.049},
      {"measurement": "MTT Average", "setting": "[2]; T47D Run 2, 24 h, 0.1 μg/ml CDDP", "result": 0.181},
      {"measurement": "MTT Average", "setting": "[2]; T47D Run 2, 24 h, 1 μg/ml CDDP", "result": 0.051},
      {"measurement": "MTT Average", "setting": "[2]; T47D Run 2, 24 h, 10 μg/ml CDDP", "result": 0.07},
      {"measurement": "MTT Average", "setting": "[2]; T47D Run 2, 24 h, 100 μg/ml CDDP", "result": 0.051},
      {"measurement": "MTT Average", "setting": "[2]; T47D Run 2, 48 h, 0.1 μg/ml CDDP", "result": 0.262},
      {"measurement": "MTT Average", "setting": "[2]; T47D Run 2, 48 h, 1 μg/ml CDDP", "result": 0.052},
      {"measurement": "MTT Average", "setting": "[2]; T47D Run 2, 48 h, 10 μg/ml CDDP", "result": 0.066},
      {"measurement": "MTT Average", "setting": "[2]; T47D Run 2, 48 h, 100 μg/ml CDDP", "result": 0.054},
      {"measurement": "MTT Average", "setting": "[2]; T47D Run 2, 72 h, 0.1 μg/ml CDDP", "result": 0.397},
      {"measurement": "MTT Average", "setting": "[2]; T47D Run 2, 72 h, 1 μg/ml CDDP", "result": 0.046},
      {"measurement": "MTT Average", "setting": "[2]; T47D Run 2, 72 h, 10 μg/ml CDDP", "result": 0.041},
      {"measurement": "MTT Average", "setting": "[2]; T47D Run 2, 72 h, 100 μg/ml CDDP", "result": 0.037},
      {"measurement": "MTT Average", "setting": "[2]; T47D Run 3, 24 h, 1 μg/ml CDDP", "result": 0.033},
      {"measurement": "MTT Average", "setting": "[2]; T47D Run 3, 24 h, 10 μg/ml CDDP", "result": 0.074},
      {"measurement": "MTT Average", "setting": "[2]; T47D Run 3, 24 h, 100 μg/ml CDDP", "result": 0.047},
      {"measurement": "MTT Average", "setting": "[2]; T47D Run 3, 48 h, 0.1 μg/ml CDDP", "result": 0.261},
      {"measurement": "MTT Average", "setting": "[2]; T47D Run 3, 48 h, 1 μg/ml CDDP", "result": 0.047},
      {"measurement": "MTT Average", "setting": "[2]; T47D Run 3, 48 h, 10 μg/ml CDDP", "result": 0.077},
      {"measurement": "MTT Average", "setting": "[2]; T47D Run 3, 48 h, 100 μg/ml CDDP", "result": 0.051},
      {"measurement": "MTT Average", "setting": "[2]; T47D Run 3, 72 h, 0.1 μg/ml CDDP", "result": 0.371},
      {"measurement": "MTT Average", "setting": "[2]; T47D Run 3, 72 h, 1 μg/ml CDDP", "result": 0.035},
      {"measurement": "MTT Average", "setting": "[2]; T47D Run 3, 72 h, 10 μg/ml CDDP", "result": 0.057},
      {"measurement": "MTT Average", "setting": "[2]; T47D Run 3, 72 h, 100 μg/ml CDDP", "result": 0.035}
    ]}
  ]
}
